The source of these data is patent publication US4337248A, “Paromomycin containing compounds and method of use” (Farmitalia Carlo Erba S.p.A., priority 1979, dated 1982).

In brackets after ≈: the same amount, converted by molar mass. Like-named read-outs stand apart in the source and are kept apart here.

Type in all cases: cell-based
In experiment [1] the test system is Staphylococcus aureus 209P. As to the kind of experiment: In vitro MIC by serial dilution in liquid medium, Staphylococcus aureus 209P. The settings on record: read-out: minimum inhibitory concentration (MIC). On the procedure:
(§1) The "in vitro" tests are carried out with the method of serial dilutions in liquid medium (Nutrient Broth Difco) and the minimal inhibition concentration (MIC) is determined after 24 hours incubation at 37° C.

The test system of a further experiment is Escherichia coli K 12. Briefly: In vitro MIC by serial dilution in liquid medium, Escherichia coli K 12. The settings on record: K12, Nutrient Broth Difco, 24 hours, 37° C, read-out: minimum inhibitory concentration (MIC). Here is the method: as §1
The subject of experiment [2] is Escherichia coli K 12-R 112. As to the kind of experiment: In vitro MIC by serial dilution in liquid medium, Escherichia coli K 12-R 112. As to conditions: K12R112, 24 h, read-out: minimum inhibitory concentration (MIC). On the procedure:
as §1

The test system of experiment [3] is Escherichia coli K 12-R 148. As to the kind of experiment: In vitro MIC by serial dilution in liquid medium, Escherichia coli K 12-R 148. The settings on record: K12R148; Escherichia coli K 12-R 148, inactivating enzyme APH (3') II; Nutrient Broth Difco, 24 hours, 37° C; read-out: minimum inhibitory concentration (MIC). Here is the method:
as §1

For experiment [4], the system named is Escherichia coli K 12-R 55. Briefly: In vitro MIC by serial dilution in liquid medium, Escherichia coli K 12-R 55. The settings on record: K12R55; Escherichia coli K 12-R 55, inactivating enzyme AAC (3) I; Nutrient Broth Difco, 24 hours, 37° C; read-out: minimum inhibitory concentration (MIC). Here is the method: as §1
For experiment [5], the system named is resistant strains of gram-negative bacteria. As to the kind of experiment: In vitro antibacterial activity, resistant strains of gram-negative bacteria (summary in words). The settings on record: against some resistant strains of gram-negative bacteria. Here is the method: as §1
For a further experiment, the system named is bacteria. Briefly: In vitro antibacterial activity (general statement). On the procedure: as §1
The mark [6] stands for this setting: Staphylococcus aureus 209P, Nutrient Broth Difco, 24 hours, 37° C.

For `NC[C@@H]1O[C@H](O[C@H]2[C@@H](O)[C@H](O[C@@H]3[C@@H](O)[C@H](N)C[C@H](N)[C@H]3O[C@H]3O[C@H](CO)C[C@H](O)[C@H]3N)O[C@@H]2CO)[C@H](N)[C@@H](O)[C@@H]1O` [(8), 4'-Deoxy paromomycin], the MIC is 1.55 µg/mL (≈ 2.58 µM) in experiment [1] (setting [6]); 12.5 µg/mL (≈ 20.8 µM) in the experiment with Escherichia coli K 12; greater than 200 µg/mL in experiment [2]; 50 µg/mL (≈ 83.4 µM) in experiment [3]; 6.25 µg/mL (≈ 10.4 µM) in experiment [4]. In experiment [5], the “activity compared with paromomycin” value was “increased activity against some resistant strains of gram-negative bacteria”. In addition, the “antibacterial activity "in vitro"” value in the experiment with bacteria was “display antibacterial activity”.
`NC[C@@H]1O[C@H](O[C@H]2[C@@H](O)[C@H](O[C@@H]3[C@@H](O)[C@H](N)C[C@H](N)[C@H]3O[C@H]3O[C@H](CO)[C@@H](O)[C@H](O)[C@H]3N)O[C@@H]2CO)[C@H](N)[C@@H](O)[C@@H]1O` [paromomycin]: the MIC was 1.55 µg/mL (≈ 2.52 µM) in experiment [1] (Staphylococcus aureus, 209P, 24 h); 12.5 µg/mL (≈ 20.3 µM) in the experiment on Escherichia coli K 12; greater than 200 µg/mL in experiment [2]; greater than 200 µg/mL in experiment [3]; 6.25 µg/mL (≈ 10.2 µM) in experiment [4].
With `NC[C@@H]1O[C@H](O[C@H]2[C@@H](O)[C@H](O[C@@H]3[C@@H](O)[C@H](N)C[C@H](N)[C@H]3O[C@H]3O[C@H](CO)[C@H](Cl)[C@H](O)[C@H]3N)O[C@@H]2CO)[C@H](N)[C@@H](O)[C@@H]1O` [(12), 4'-Deoxy-4'-epi-chloro-paromomycin], the MIC in experiment [1] (setting [6]) is 6.25 µg/mL (≈ 9.86 µM); in the experiment with Escherichia coli K 12, 50 µg/mL (≈ 78.9 µM); in experiment [2], greater than 200 µg/mL; in experiment [3], 200 µg/mL (≈ 315 µM); in experiment [4], 50 µg/mL (≈ 78.9 µM). The “antibacterial activity "in vitro"” value in the experiment with bacteria is “display antibacterial activity”.
